Residues, ends and D or L forms follow the SMILES beside them. No end group written: not given here.
How the values were obtained:
bilitranslocase (BTL) = conditions: ref [10]; cited from earlier work
TM2:TM2 = test: FRET titration of Atto488/Atto594-labelled peptides in SDS micelles, TM2:TM2 pair; format: binding; conditions: Atto488 donor/Atto594 acceptor, SDS micelle, TM2 with TM2, ratio of donor emission at 523 nm to acceptor emission at 627 nm, read-out: dissociation constant Kd
TM3:TM3 = test: FRET titration of Atto488/Atto594-labelled peptides in SDS micelles, TM3:TM3 pair; format: binding; conditions: Atto488 donor/Atto594 acceptor, SDS micelle, TM3 with TM3, ratio of donor emission at 523 nm to acceptor emission at 627 nm, read-out: dissociation constant Kd

C=CC1=C(C)/C(=C/c2[nH]c(Cc3[nH]c(/C=C4\NC(=O)C(C)=C4C=C)c(C)c3CCC(=O)O)c(CCC(=O)O)c2C)NC1=O [bilirubin]
allosteric effect on BTL (bilitranslocase (BTL)): positive allosteric effectors, inducing the BTL into its high-affinity state
effect on conversion between the two metastable BTL conformers (bilitranslocase (BTL)): accelerated

CC[C@H](C)[C@H](NC(=O)[C@H](C)NC(=O)[C@H](CCCCN)NC(=O)[C@H](CS)NC(=O)[C@H](CC(C)C)NC(=O)CNC(=O)[C@H](CO)NC(=O)[C@@H](NC(=O)CNC(=O)[C@H](C)NC(=O)[C@H](CO)NC(=O)[C@H](Cc1ccccc1)NC(=O)[C@@H]1CCCN1C(=O)[C@H](CO)NC(=O)[C@H](CCC(N)=O)NC(=O)[C@H](CC(C)C)NC(=O)[C@@H](NC(=O)[C@H](C)NC(=O)[C@@H](NC(=O)[C@H](Cc1ccccc1)NC(=O)[C@H](CC(C)C)NC(=O)[C@H](CS)NC(=O)[C@H](Cc1ccccc1)NC(=O)[C@H](CO)NC(=O)[C@@H](N)CO)C(C)C)[C@@H](C)O)C(C)C)C(=O)N[C@@H](CC(C)C)C(=O)N[C@@H](CC(C)C)C(=O)N[C@@H](CCCCN)C(=O)N[C@@H](CCCCN)C(=O)N[C@@H](CCCCN)C(=O)N[C@@H](CCCCN)C(=O)O [TM2:TM2] (H-SSFCLFVATLQSPFSAGVSGLCKAILLKKKK-OH)
Kd (TM2:TM2): 71.9 µM

GSVQCAGLISLPIAIEFTYKKKK [TM3:TM3]
Kd (TM3:TM3): 191 µM

O=C(O)c1cccnc1 [nicotinic acid]
allosteric effect on BTL (bilitranslocase (BTL)): positive allosteric effectors, inducing the BTL into its high-affinity state

— paper PMC4546402, “Structural Model of the Bilitranslocase Transmembrane Domain Supported by NMR and FRET Data” (PLoS ONE, 2015)
